Data published in patent US20250319073A1, “COMPOSITIONS AND METHODS FOR THE TREATMENT OF HUNTINGTON’S DISEASE AND HTT PROTEINOPATHIES” (priority 2022, published 2025).

Key:
[1] = system: Peripheral Blood Mononuclear Cells (PBMC); assay: MitoSOX mitochondrial ROS assay (flow cytometry) in PBMCs of treated mice; assay type: in vivo, mouse; conditions: R6/2 mice, 0.5 mg/kg / 5 mg/kg i.p. QD, PBMCs collected at 13 weeks of age
Procedure: Euthanasia & Sample Collection—At 13 weeks of age, 9 mice per group were euthanized by deep anesthesia with sodium pentobarbital (180 mg/kg). The remaining mice were euthanized and any samples were not collected, except the tail and ear samples. A terminal blood sample (as much as possible) was collected by cardiac puncture into a syringe. The whole blood was placed in Li-Hep tube at RT and used immediately for preparation of PBMCs. The whole brain was collected and fresh frozen in liquid nitrogen and stored at −80° C. Blood was collected also from extra animals as staining controls for the flow cytometry assays (n=3 extra animals per day). Tail and ear samples were collected for possible post-study re-genotype analysis. […] Right before measurement 1 μL of propidium iodide was added and the cell number and viability was determined by MACSquant Analyzer 10 flow cytometer. […] The cells were analyzed immediately after the staining using the MACSQuant Analyzer 10 (Miltenyi Biotec) and Cytation 3 (Cell titerglow). […] Oxidation of MitoSOX™ Red reagent by superoxide produces red fluorescence and can be used to reliably the relative differences in mitochondrial ROS formation in cells. […] Concentrations exceeding 5 μM can produce cytotoxic effects, including altered mitochondrial morphology and redistribution of fluorescence to nuclei and the cytosol. • 2. […]

[2] = system: R6/2 mice; assay: Rotarod test in R6/2 mice; assay type: in vivo, mouse; conditions: 5 mg/kg i.p. QD, 10 weeks of age, p<0.05, One-way ANOVA
Procedure: Study Summary—A total of 46 male R6/2 mice and 15 male wild-type littermate control mice (WT) were used in the study. The mice were genotyped and the R6/2 mice were divided into different treatment groups based on their pre-treatment body weight. The treatment with Compound (Ia) (0.5 or 5 mg/kg; 10 ml/kg, intraperitoneally (i.p.), QD) or Vehicle (10 ml/kg, i.p., QD) was started at 4 weeks of age. Body weights were measured before the treatment onset and continued twice a week until the end of the study. Fine motor kinematic analysis and rotarod test were performed at 10 weeks of age and the open field activity and clasping behavior were measured at 12 weeks of age for all mice. At 8 and 12 weeks of age the glucose uptake was measured by ^18F-FDG PET and the striatal metabolites were measured using MR spectroscopy for 9-10 mice per group. At 13 weeks of age 9-10 mice per group were subjected to tissue sample collection, and the brain and blood samples were collected. The blood samples were used to prepare peripheral blood mononuclear cells (PBMCs) on which the flow cytometry/luminescence analysis was performed for following assays: mitochondrial reactive oxygen species (ROS) (MitoSox), and ATP levels (Cell TiterGlow). […]
Rotarod Test—At 10 weeks of age all mice were subjected to rotarod test. […] The latency to fall from the rod was recorded.

## Cc1cc(O)cc(C)c1C[C@H](NC(=O)[C@H](N)CCCNC(=N)N)C(=O)N[C@@H](CCCCN)c1nc(Cc2ccccc2)no1.Cl.Cl [Compound (Ia), (R)-2-amino-N—((S)-1-(((S)-5-amino-1-(3-benzyl-1,2,4-oxadiazol-5-yl)pentyl)amino)-3-(4-hydroxy-2,6-dimethylphenyl)-1-oxopropan-2-yl)-5-guanidinopentanamide]
[1]
  mitochondrial ROS formation (MitoSOX) in PBMCs, R6/2+Vehicle vs treated R6/2: no significant differences
[2]
  latency to fall in rotarod compared to vehicle treated R6/2 mice: increased latency
